Literature values as cited in patent publication US8865693B2, “Prevention of infection” (Pop Test Cortisol LLC, priority 2011, dated 2014).

Tests used:
[1] = in words only
glucocorticoid receptor = target: T1, glucocorticoid receptor (Homo sapiens, UniProt P04150); details: in words only
T1 sequence (P04150 1-777): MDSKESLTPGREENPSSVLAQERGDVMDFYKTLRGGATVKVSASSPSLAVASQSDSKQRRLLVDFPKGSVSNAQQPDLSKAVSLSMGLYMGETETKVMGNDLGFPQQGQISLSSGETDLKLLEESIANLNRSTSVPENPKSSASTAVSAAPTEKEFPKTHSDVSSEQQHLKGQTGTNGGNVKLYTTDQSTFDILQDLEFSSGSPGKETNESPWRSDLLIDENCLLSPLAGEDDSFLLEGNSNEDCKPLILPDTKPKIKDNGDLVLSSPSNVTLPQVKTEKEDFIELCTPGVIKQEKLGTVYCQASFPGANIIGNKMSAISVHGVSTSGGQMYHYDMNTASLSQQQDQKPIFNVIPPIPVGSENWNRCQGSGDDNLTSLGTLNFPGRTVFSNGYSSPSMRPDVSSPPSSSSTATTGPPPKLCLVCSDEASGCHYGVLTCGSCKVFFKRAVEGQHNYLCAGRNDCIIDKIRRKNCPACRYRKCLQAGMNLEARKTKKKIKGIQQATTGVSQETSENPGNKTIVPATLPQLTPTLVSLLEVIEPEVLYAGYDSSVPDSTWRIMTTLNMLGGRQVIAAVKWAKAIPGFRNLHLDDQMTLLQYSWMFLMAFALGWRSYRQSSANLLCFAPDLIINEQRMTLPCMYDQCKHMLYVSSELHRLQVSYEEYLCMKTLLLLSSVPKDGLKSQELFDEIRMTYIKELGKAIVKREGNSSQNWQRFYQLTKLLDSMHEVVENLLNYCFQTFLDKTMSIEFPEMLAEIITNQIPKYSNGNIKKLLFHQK

[2] = phase I and phase II clinical trials already performed
[3] = test system: mineralocorticoid, progesterone, estrogen and androgen receptors; details: in words only
[4] = in words only; remark: listed apart in the source

glucocorticoid receptor binding affinity (glucocorticoid receptor): high
cross-binding to other related steroidal hormone receptors (such as those for estrogen and progesterone) [3]: without significant cross-binding
SMILES: CC#C[C@]1(O)CC[C@H]2[C@@H]3CCC4=CC(=O)CCC4=C3[C@@H](c3ccc4c(c3)OCO4)C[C@@]21C [ORG 34517, (11β,17β)-11-(1,3-benzodioxol-5-yl)-17-hydroxy-17-(1-propynyl) estra-4,9-dien-3-one]
progestagenic activities [1]: low
significant toxicities and side effects identified [2]: none were identified
androgenic activities [4]: low
